From the NIST ThermoML archive (doi:10.1021/je034102r)

Assay: molar heat capacity at constant pressure
Details: 101.33 kPa, Liquid, heat bridge-scanning calorimeter

CCCCn1cc[n+](C)c1.F[P-](F)(F)(F)(F)F [1-butyl-3-methylimidazolium hexafluorophosphate]
Details | molar heat capacity at constant pressure [J/K/mol]
466.32 K | 494.48
466.46 K | 494.76
466.59 K | 495.05
466.73 K | 495.9
466.87 K | 495.33
467 K | 495.33
467.14 K | 495.33
467.28 K | 495.05
467.41 K | 495.33
467.55 K | 495.05
467.84 K | 495.05
467.98 K | 495.33
468.12 K | 495.33
468.25 K | 495.9
468.39 K | 495.9
468.52 K | 495.61
468.66 K | 495.61
468.8 K | 495.33
468.93 K | 495.05
469.25 K | 495.33
469.38 K | 495.33
469.52 K | 495.33
469.66 K | 495.33
469.79 K | 495.61
469.93 K | 495.61
470.07 K | 495.61
470.2 K | 495.61
470.34 K | 496.18
470.48 K | 495.61
470.61 K | 495.9
470.91 K | 495.9
471.04 K | 496.18
471.18 K | 496.47
471.32 K | 496.47
471.45 K | 496.47
471.59 K | 496.47
471.73 K | 496.47
471.87 K | 496.18
472 K | 496.47
472.3 K | 496.47
472.44 K | 496.47
472.58 K | 496.47
472.71 K | 496.75
472.85 K | 496.75
472.99 K | 496.47
473.12 K | 496.47
473.26 K | 496.47
473.4 K | 496.47
473.53 K | 496.47
473.67 K | 497.03
473.97 K | 498.17
474.1 K | 497.6
474.24 K | 497.32
474.38 K | 497.32
474.51 K | 497.6
474.65 K | 497.32
474.79 K | 497.03
474.92 K | 496.75
475.06 K | 496.75
475.36 K | 496.75
475.5 K | 497.03
475.63 K | 496.75
475.78 K | 497.03
475.92 K | 497.03
476.06 K | 497.03
476.19 K | 497.03
476.33 K | 497.03
476.47 K | 497.32
476.61 K | 497.32
476.74 K | 497.32
477.04 K | 497.6
477.18 K | 497.32
477.31 K | 497.6
477.45 K | 498.17
477.59 K | 497.89
477.72 K | 497.89
477.86 K | 497.89
478 K | 497.6
478.13 K | 497.6
478.44 K | 497.6
478.57 K | 497.6
478.71 K | 497.6
478.85 K | 497.6
478.98 K | 497.6
479.12 K | 497.89
479.26 K | 497.6
479.39 K | 497.6
479.53 K | 497.89
479.67 K | 497.89
479.81 K | 498.17
480.1 K | 498.17
480.24 K | 498.17
480.38 K | 497.89
480.51 K | 498.17
480.65 K | 498.17
